Test [1] has as its system FOXO3a. The test can be described thus: FOXO3a immunofluorescence localization (cytoplasm-to-nucleus translocation) assay. Type of test: cell-based. On the procedure:
Tissue culture cells are plated in 96 well culture plates in culture medium with 10% (full) serum. 24 hours later, cells are dosed with 1 uM of indicated drug for 6 hours at which point cells are directly fixed in 4% formaldehyde in protein-free phosphate-buffered saline (PBS) for 20 min at 37° C. Plates are washed and then cells permeabilized by a 10 min incubation in ice cold methanol. Plates are washed to remove methanol and incubated with anti-FOXO3a antibody (Cell Signaling Technology, catalog #2497, clone 75D8) in antibody dilution buffer (1% BSA, 0.3% Triton X-100 in PBS) at a 1:20 dilution of primary antibody, along with Hoechst nuclear stain (1:10,000 dilution). Cells are incubated overnight at 4° C. Plates are washed to remove primary antibody and then incubated with secondary antibody, goat anti-rabbit conjugated to Alexa-flour 488 dye (Invitrogen) for 1 hr at ambient temperature in the dark. Plates are washed with PBS, sealed with black plate sealer and analyzed on the Cellomics HCS ArrayScan Imager using the Cytoplasm-to-Nucleus translocation bioapplication (Thermo Scientific).

Test [2] relates to PTEN null breast cancer cell lines. The test can be described thus: Cell line sensitivity to AKT inhibitor (IC50). Type of test: cell-based.
Test [3] concerns breast cancer cell lines. Particulars: panel of breast cancer cell lines; Hoeflich et al 2009; cited from earlier work.
Setting [4] is: PI3K/AKT inhibitor resistant cell lines, FIG. 8.
Where [5] appears, read: cell lines sensitive to PI3K/AKT inhibitors, FIG. 7.
The mark [6] stands for this setting: resistant lines with PI3K/AKT activation (MB-468 with PTEN loss), FIG. 8.

As to `CC(C)NC[C@@H](C(=O)N1CCN(c2ncnc3c2[C@H](C)C[C@H]3O)CC1)c1ccc(Cl)cc1` [GDC-0068, (S)-2-(4-chlorophenyl)-1-(4-((5R,7R)-7-hydroxy-5-methyl-6,7-dihydro-5H-cyclopenta[d]pyrimidin-4-yl)piperazin-1-yl)-3-(isopropylamino)propan-1-one], in test [1] (BT474 cells, FIG. 2B), the FOXO3a localization post-treatment result is recorded as “translocated to the nucleus”. In addition, the figures for the “FOXO3a localization upon treatment” value in test [1] (setting [4]), in test [1] (setting [5]) and in test [1] (setting [6]) were “remains nuclear”, “translocated from cytoplasm to nucleus” and “more complete relocalization to nucleus”, respectively. Further, the “sensitivity of cell line to AKT inhibitor” value in test [2] (MDA-MB-468, cell line with PTEN loss) is “resistant”. The IC50 (usually the midpoint of a concentration-inhibition curve) in test [2] (resistant cell lines with PTEN null status, FIG. 5) was > 20 µM.
As for `CS(=O)(=O)N1CCN(Cc2cc3nc(-c4cccc5[nH]ncc45)nc(N4CCOCC4)c3s2)CC1` [GDC-0941, 2-(1H-Indazol-4-yl)-6-(4-methanesulfonyl-piperazin-1-ylmethyl)-4-morpholin-4-yl-thieno[3,2-d]pyrimidine], the “FOXO3a localization upon treatment” value in test [1] (setting [4]) was “remains nuclear”; in test [1] (cell lines resistant to GDC-0941, FIG. 10B), “remains nuclear”; in test [1] (cell lines sensitive to GDC-0941, FIG. 10A) it was “relocalizes from cytoplasm to nucleus”; in test [1] (setting [5]), “translocated from cytoplasm to nucleus”; in test [1] (setting [6]) it was “more complete relocalization to nucleus”.
With `O=C(NOC[C@H](O)CO)c1ccc(F)c(F)c1Nc1ccc(I)cc1F` [PD901, reference compound], the “activity at the concentration used” value in test [3] is recorded as “active”. Moreover, the “FOXO3a localization upon treatment” value in test [1] (breast cancer cell lines, FIGS. 11A-C) was “unchanged”.

Values taken from patent publication US20130059859A1, “PREDICTIVE BIOMARKERS FOR PI3K/AKT KINASE PATHWAY INHIBITOR EFFICACY” (GENENTECH, INC., priority 2010, published 2013).
